Experimental data taken from the supplement of paper PMC10307832.

Legend:
Experiment in all cases: relative viability (nuclei count vs DMSO), 5 days (fraction); higher = more cells survive
[1] = compound: CCn1c(-c2nonc2N)nc2c(C#CC(C)(C)O)ncc(OC[C@H]3CCCNC3)c21 + Cc1nc(Nc2ncc(C(=O)Nc3c(C)cccc3Cl)s2)cc(N2CCN(CCO)CC2)n1 [Dasatinib] (partner 0.075 µM)
Outline: (§1)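 Lung cancer cell lines in 1536-well plates got either a single drug or a fixed anchor-drug dose together with five library-drug doses (not always all listed) in √10 steps, by pin tool, on the day after seeding. Nuclei were counted after 5 days, and relative viability is the treated-to-vehicle ratio of nuclei counts. Values are medians of duplicate plates.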

BAM7 + Decitabine = compound: CCOC1=CC=CC=C1N=NC2=C(NN(C2=O)C3=NC(=CS3)C4=CC=CC=C4)C [BAM7] + Nc1ncn([C@H]2C[C@H](O)[C@@H](CO)O2)c(=O)n1 [Decitabine] (partner 2 µM)
Outline: as §1

[2] = compound: CCn1c(-c2nonc2N)nc2c(C#CC(C)(C)O)ncc(OC[C@H]3CCCNC3)c21 + CCNC(=O)c1noc(-c2cc(C(C)C)c(O)cc2O)c1-c1ccc(CN2CCOCC2)cc1 [Luminespib] (partner 0.01 µM)
Outline: as §1

BAM7 + Bortezomib = compound: CCOC1=CC=CC=C1N=NC2=C(NN(C2=O)C3=NC(=CS3)C4=CC=CC=C4)C [BAM7] + CC(C)C[C@H](NC(=O)[C@H](Cc1ccccc1)NC(=O)c1cnccn1)B(O)O [Bortezomib] (partner 0.002 µM)
Outline: as §1

| Cell Line | relative viability ([1]; first compound 0.01 µM) | relative viability ([1]; first compound 0.03162 µM) | relative viability ([1]; first compound 0.1 µM) | relative viability ([1]; first compound 0.3162 µM) | relative viability ([1]; first compound 1 µM) | relative viability (BAM7 + Decitabine; first compound 0.5 µM) | relative viability (BAM7 + Decitabine; first compound 5 µM) | relative viability (BAM7 + Decitabine; first compound 15.81 µM) | relative viability (BAM7 + Decitabine; first compound 50 µM) | relative viability ([2]; first compound 0.01 µM) | relative viability ([2]; first compound 0.03162 µM) | relative viability ([2]; first compound 0.1 µM) | relative viability ([2]; first compound 0.3162 µM) | relative viability ([2]; first compound 1 µM) | relative viability (BAM7 + Bortezomib; first compound 0.5 µM) | relative viability (BAM7 + Bortezomib; first compound 5 µM) | relative viability (BAM7 + Bortezomib; first compound 15.81 µM) | relative viability (BAM7 + Bortezomib; first compound 50 µM) |
| --- | --- | --- | --- | --- | --- | --- | --- | --- | --- | --- | --- | --- | --- | --- | --- | --- | --- | --- |
| NCI-H1437 | 0.381 | 0.359 | 0.391 | 0.385 | 0.354 | 0.527 | 0.572 | 0.543 | 0.482 | 1.07 | 1.13 | 1.21 | 1.09 | 1.17 | 0.537 | 0.412 | 0.395 | 0.551 |
| NCI-H1650 | 0.338 | 0.302 | 0.297 | 0.266 | 0.25 | 0.39 | 0.409 | 0.431 | 0.38 | 0.187 | 0.202 | 0.182 | 0.199 | 0.206 | 0.235 | 0.297 | 0.202 | 0.199 |
| NCI-H1651 | 0.43 | 0.402 | 0.412 | 0.396 | 0.454 | 0.598 | 0.66 | 0.617 | 0.599 | 0.969 | 0.875 | 0.811 | 0.755 | 0.953 | 0.992 | 0.917 | 0.988 | 0.926 |
| NCI-H1666 | 0.847 | 0.99 | 0.833 | 0.819 | 0.771 | 0.691 | 0.775 | 0.718 | 0.677 | 0.948 | 0.933 | 1.05 | 0.959 | 1.04 | 0.852 | 0.682 | 0.729 | 0.998 |
| NCI-H1734 | 0.473 | 0.475 | 0.414 | 0.407 | 0.38 | 0.515 | 0.519 | 0.551 | 0.489 | 0.189 | 0.194 | 0.177 | 0.145 | 0.219 | 1.13 | 1.12 | 0.888 | 0.978 |
| NCI-H1755 | 0.432 | 0.419 | 0.423 | 0.42 | 0.42 | 0.667 | 0.774 | 0.711 | 0.793 | 0.455 | 0.519 | 0.556 | 0.513 | 0.423 | 1.02 | 1.01 | 0.949 | 0.95 |
| NCI-H1792 | 0.758 | – | 0.818 | 0.705 | 0.897 | 0.557 | 0.458 | 0.48 | 0.516 | 0.593 | – | 0.566 | 0.416 | 0.47 | 1.09 | 1.06 | 0.97 | 0.957 |
| NCI-H1915 | 0.295 | 0.309 | 0.324 | 0.302 | 0.368 | 0.266 | 0.259 | 0.249 | 0.281 | 0.713 | 0.898 | 0.741 | 0.755 | 0.724 | 0.988 | 1.01 | 1.09 | 1.03 |
| NCI-H1975 | 0.355 | 0.462 | 0.412 | 0.376 | 0.306 | 0.372 | 0.377 | 0.351 | 0.382 | 0.214 | 0.166 | 0.199 | 0.247 | 0.304 | 0.356 | 0.379 | – | 0.386 |
